Results reported in paper PMC9873984, “Membrane cholesterol regulates inhibition and substrate transport by the glycine transporter, GlyT2” (Life Science Alliance, 2023).

Tested on: Xenopus laevis oocytes
Assay: Quantification of cholesterol content of oocytes (Amplex Red)
Format: cell-based
Settings: 15 mM for 30 min at 32°C; normalized to control oocytes
Method: The cell was then unclamped and removed from the electrophysiology rig and placed in an incubator at 32°C in a solution containing 15 mM MβCD for 30 min. The oocyte was then replaced in the electrophysiology rig and washed for 10 min in recording buffer, the voltage clamp was re-established, and the glycine transport currents were remeasured. […] Under these conditions, MβCD caused a 44% reduction in membrane cholesterol content, which is consistent with previous studies in oocytes (Fig 4) ([Santiago et al, 2001]; [Sadler & Jacobs, 2004]).
Figure 4. Cholesterol levels of control and MβCD-treated Xenopus laevis oocytes. Groups of six oocytes were incubated in 0 mM (control) or 15 mM MβCD for 30 min at 32°C. After incubation, oocytes were lysed in 1% Triton X-100 by vortexing and manually disrupting the membranes with forceps. Cell lysates were centrifuged, and the cholesterol content of the supernatant was quantified using the Amplex Red method. […]
Control and MβCD-treated oocytes were lysed in 1% Triton X-100 (Sigma-Aldrich) by vortexing and manually disrupting the membranes with forceps. […] The supernatant was then treated in accordance with the manufacturer’s protocol for the Amplex Red Cholesterol Assay Kit (Thermo Fisher Scientific) to quantify differences in cholesterol content.

methyl-β-cyclodextrin [MβCD]
Reduction in membrane cholesterol content: 44%
